Values joined by “and” are separate entries in the source; they are usually repeats but may differ in a detail not shown here. Equal entries are not always repeated. Structures can show the parent of a compound that is named as a salt. Where two headings read alike, the source gives them in different places.
How the values were obtained:
MV-4-11 = test: Anti-proliferative effect (CellTiter-Glo, 72 h), MV-4-11; type: cell-based; settings: MV-4-11 cells, median, read-out: IC50 antiproliferation assay MV-4-11 [M] (median)
Summary of the method: (§1)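 Anti-proliferative activity is derived from ATP-based luminescence (CellTiter-Glo) in cells exposed to compound for 72 h at 37 °C, set against a time zero plate read at seeding.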

SUDHL5 [1] = test: Anti-proliferative effect (CellTiter-Glo, 72 h), SUDHL5; type: cell-based; settings: SUDHL5 cells, antiproliferation, median, read-out: Antiproli SUDHL5 [M] (median)
Summary of the method: as §1

SUDHL5 [2] = test: Induction of cytotoxicity (CellTiter-Glo, 5 h), SUDHL5; settings: read-out: Cytotox SUDHL5 [M] (median), SUDHL5 cells, cytotoxicity induction, CellTiter-Glo, median
NCI-H1703 = test: Anti-proliferative effect (CellTiter-Glo, 72 h), NCI-H1703; type: cell-based; settings: Homo sapiens, NCI-H1703 cells, median, read-out: IC50 antiproliferation assay NCI-H1703 [M] (median)
Procedure: (§2) The impact of compounds on the proliferation of different cell lines was assessed using the CellTiter-Glo® Luminescent Cell Viability reagent from Promega (G7573). Of note, SUDHL10 and SUDHL5 (DLBCL), NCI-H929 (Multiple Myeloma), A2780 (ovarian carcinoma) as well as MV-4-11(AML) cells are sensitive to MCL-1 inhibition.
(§3) In parallel, cells were plated in a reference (day 0) plate for time zero determination.
(§4) Rim wells were excluded. The cells were incubated for 72 h hours in a humidified incubator at 37° C. The day 0 plate was measured by adding 30 μl/well of CTG solution (CellTiter-Glo® Luminescent Cell Viability reagent, Promega G7573) to time zero wells in the reference plate followed by a 10 minutes incubation and luminescence reading at 0.1 ms, using the PHERAstar FS microplate reader (BMG Labtech).
(§5) After 72 h incubation, the treated plates were measured in the same way as the day 0 plate mentioned above.

A2780 = test: Anti-proliferative effect (CellTiter-Glo, 72 h), A2780; type: cell-based; settings: A2780 cells, median, read-out: IC50 antiproliferation assay A2780 [M] (median)
Summary of the method: as §1

SUDHL10 [3] = test: Induction of caspase-3/7 activity (Caspase-Glo 3/7), SUDHL10; type: cell-based; settings: caspase-3/7 induction, SUDHL10 cells, 3 h treatment; median
Summary of the method: (§6)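 Caspase-Glo 3/7 luminescence measured after 3 h compound exposure at 37 °C in SUDHL10 and SUDHL5 cells. EC50 values come from background-corrected signals, with curve bottom set to 1 and plateau set to maximal induction by the reference compound.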

SUDHL5 [4] = test: Induction of caspase-3/7 activity (Caspase-Glo 3/7), SUDHL5; type: cell-based; settings: caspase-3/7 induction, SUDHL5 cells, 3 h treatment; median
Summary of the method: as §6

MCL-1 = MCL-1 (Homo sapiens, UniProt Q07820); test: Protein-protein interaction assay MCL-1/Noxa BH3 peptide (MCL-1 assay), TR-FRET; type: binding; settings: MBP-MCL-1 / Noxa BH3-derived peptide, median
Sequence of MCL-1 (Q07820 whole entry): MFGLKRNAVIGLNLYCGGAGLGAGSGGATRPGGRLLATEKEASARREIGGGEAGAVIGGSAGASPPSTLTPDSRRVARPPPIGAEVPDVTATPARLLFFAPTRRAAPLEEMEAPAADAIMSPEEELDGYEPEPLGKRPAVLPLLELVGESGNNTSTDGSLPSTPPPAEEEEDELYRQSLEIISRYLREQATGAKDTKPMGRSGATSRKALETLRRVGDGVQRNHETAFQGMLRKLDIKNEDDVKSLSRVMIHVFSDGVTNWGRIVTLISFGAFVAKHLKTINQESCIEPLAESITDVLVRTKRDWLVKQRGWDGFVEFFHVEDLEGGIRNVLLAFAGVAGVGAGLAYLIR
Summary of the method: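 MBP-MCL-1 (1 nM final) was preincubated 10 min at 22 °C with compounds (11 concentrations, 0.1 nM–20 μM, duplicates) in Tris pH 7 buffer with NaCl, KF, Tween-20, DTT and BGG. After 1 h at 22 °C in the dark plus overnight at 4 °C, anti-MBP Eu-cryptate/streptavidin-XL665 TR-FRET was read; IC50 came from a 4-parameter fit.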

SK-MEL-2 = test: Anti-proliferative effect (CellTiter-Glo, 72 h), SK-MEL-2; type: cell-based; settings: Homo sapiens, SK-MEL-2 cells, median, read-out: IC50 antiproliferation assay SK-MEL-2 [M] (median)
Procedure: Assessment of the Anti-Proliferative Effect of Compounds in Different Cell Lines
as §2, §3, §4, §5

SUDHL10 [5] = test: Induction of cytotoxicity (CellTiter-Glo, 5 h), SUDHL10; settings: read-out: Cytotox SUDHL10 [M] (median), SUDHL10 cells, cytotoxicity induction, CellTiter-Glo, median
SUDHL5 [6] = tested on: SUDHL5
SUDHL10 [7] = tested on: SUDHL10
SUDHL10 [8] = test: Anti-proliferative effect (CellTiter-Glo, 72 h), SUDHL10; type: cell-based; settings: SUDHL10 cells, antiproliferation, 72 h incubation, median, read-out: Antiproli SUDHL10 [M] (median)
Summary of the method: as §1

OPM2 = test: Anti-proliferative effect (CellTiter-Glo, 72 h), OPM2; type: cell-based; settings: OPM2 cells, median, read-out: IC50 antiproliferation assay OPM2 [M] (median)
Summary of the method: as §1

SMILES | IC50 (MV-4-11; Homo sapiens, MV4-11, 72 h) [M] | IC50 (SUDHL5 [1]; 72 h incubation) [M] | IC50 (NCI-H1703) [M] | IC50 (A2780; Homo sapiens, A2780, 72 h) [M] | EC50 (SUDHL10 [3]) | EC50 (SUDHL5 [4]) [µM] | IC50 (MCL-1) [µM] | IC50 (SK-MEL-2) [M] | IC50 (MV-4-11) [M] | IC50 (SUDHL5 [1]; 72 h) [M] | IC50 (SUDHL5 [6]) [µM] | IC50 (SUDHL10 [7]) [µM] | IC50 (SUDHL10 [8]) [M] | IC50 (A2780) [M] | IC50 (SUDHL5 [2]; 5 h incubation) [M] | IC50 (SUDHL10 [5]; 5 h incubation) [M] | IC50 (SUDHL5 [2]; 5 h) [M] | IC50 (SUDHL10 [5]; 5 h) [M] | IC50 (OPM2) [M]
CCc1nn(C)c2c1-c1c(C)ccc3c(CCCOc4cccc5cc(F)ccc45)c(C(=O)O)n(c13)CCCCOC2 (single isomer, unassigned) [Example 267, (+)-3-ethyl-7-{3-[(6-fluoronaphthalen-1-yl)oxy]propyl}-1,4-dimethyl-1,10,11,12,13,15-hexahydropyrazolo[4′,3′:9,10][1,6]oxazacycloundecino[8,7,6-hi]indole-8-carboxylic Acid] | 7.02e-06 | 1.89e-06 | 1.36e-05 | 2.15e-05 | 4.6 µM | 1.14 | 0.00037 | 2e-05 | – | – | – | – | – | – | 1.11e-06 | 3.66e-06 | – | – | –
Cn1nc(CN2CCOCC2)c2c1COCCCn1c(C(=O)O)c(CCCOc3cccc4ccccc34)c3cccc-2c31 (single isomer, unassigned; enantiomer 1) [Example 139, 9-methyl-11-(morpholin-4-ylmethyl)-1-[3-(naphthalen-1-yloxy)propyl]-5,6,8,9-tetrahydro-4H-pyrazolo[4′,3′:8,9][1,5]oxazecino[7,6,5-hi]indole-2-carboxylic Acid (Enantiomer 1)] | – | – | – | – | > 33 µM | > 33 | 0.0422 | – | – | – | > 33 | > 33 | 2.67e-05 | > 3.3e-05 | – | – | – | – | > 3.3e-05
CN1CCCn2c(C(=O)O)c(CCCOc3cccc4ccccc34)c3cccc(c32)-c2c(CCN3CCOCC3)nn(C)c2C1 (single isomer, unassigned; enantiomer 2) [Example 126, 7,9-dimethyl-11-[2-(morpholin-4-yl)ethyl]-1-[3-(naphthalen-1-yloxy)propyl]-4,5,6,7,8,9-hexahydropyrazolo[3′,4′:7,8][1,5]diazecino[9,10,1-hi]indole-2-carboxylic Acid (Enantiomer 2)] | – | 1.68e-05 | – | – | > 33 µM | 27.9 | 0.0845 | – | – | – | 27.3 | > 33 | 1.51e-05 | 3.19e-05 | – | – | – | – | > 3.3e-05
Cn1nc(CN2CCOCC2)c2c1COCCCn1c(C(=O)O)c(CCCOc3cccc4ccccc34)c3cccc-2c31 (single isomer, unassigned; enantiomer 2) [Example 140, 9-methyl-11-(morpholin-4-ylmethy)-1-[3-(naphthalen-1-yloxy)propyl]-5,6,8,9-tetrahydro-4H-pyrazolo[4′,3′:8,9][1,5]oxazecino[7,6,5-hi]indole-2-carboxylic Acid (Enantiomer 2)] | – | 1.17e-05 | – | – | 20.3 µM and > 33 µM | 14.9 | 0.0114 | – | 2.27e-05 | – | 16.7 | – | 1.79e-05 | > 3.3e-05 | – | – | – | – | > 3.3e-05
Cc1c2c(nn1CC(F)(F)F)COCCCCn1c(C(=O)O)c(CCCOc3cccc4ccccc34)c3cccc-2c31 [Example 242, 3-methyl-7-[3-(naphthalen-1-yloxy)propyl]-2-(2,2,2-trifluoroethyl)-2,10,11,12,13,15-hexahydropyrazolo[4′,3′:9,10][1,6]oxazacycloundecino[8,7,6-hi]indole-8-carboxylic Acid] | – | 1.52e-06 | – | – | > 33 µM | > 33 | 0.258 | – | – | – | > 33 | > 33 | 2.74e-06 | 2.59e-06 | – | – | – | – | –

Second part, led by results:

IC50 (MV-4-11; Homo sapiens, MV4-11, 72 h) [M] | IC50 (SUDHL5 [1]; 72 h incubation) [M] | IC50 (NCI-H1703) [M] | IC50 (A2780; Homo sapiens, A2780, 72 h) [M] | EC50 (SUDHL10 [3]) | EC50 (SUDHL5 [4]) [µM] | IC50 (MCL-1) [µM] | IC50 (SK-MEL-2) [M] | IC50 (MV-4-11) [M] | IC50 (SUDHL5 [1]; 72 h) [M] | IC50 (SUDHL5 [6]) [µM] | IC50 (SUDHL10 [7]) [µM] | IC50 (SUDHL10 [8]) [M] | IC50 (A2780) [M] | SMILES | IC50 (SUDHL5 [2]; 5 h incubation) [M] | IC50 (SUDHL10 [5]; 5 h incubation) [M] | IC50 (SUDHL5 [2]; 5 h) [M] | IC50 (SUDHL10 [5]; 5 h) [M] | IC50 (OPM2) [M]
– | 5.78e-07 | 4.85e-06 | 8.66e-06 | 0.906 µM | 0.385 | 0.00109 | 1.25e-05 | 3.69e-06 | – | – | – | – | – | CCc1c2c(nn1C)COCCCCn1c(C(=O)O)c(CCCOc3cccc4cc(F)ccc34)c3cccc-2c31 (single isomer, unassigned) [Example 282, (+)-3-ethyl-7-{3-[(6-fluoronaphthalen-1-yl)oxy]propyl}-2-methyl-2,10,11,12,13,15-hexahydropyrazolo[4′,3′:9,10][1,6]oxazacycloundecino[8,7,6-hi]indole-8-carboxylic acid-N-ethylethanamine Salt] | 6.16e-07 | 7.8e-07 | – | – | –
– | 9.39e-07 | 6.98e-06 | 1.22e-05 | 1.41 µM | 0.646 | 0.000782 | 1.09e-05 | 3.61e-06 | – | – | – | – | – | Cc1c2c(nn1CCN1CCOCC1)COCCCCn1c(C(=O)O)c(CCCOc3cccc4cc(F)ccc34)c3cccc-2c31 (single isomer, unassigned) [Example 285, (+)-7-{3-[(6-fluoronaphthalen-1-yl)oxy]propyl}-3-methyl-2-[2-(morpholin-4-yl)ethyl]-2,10,11,12,13,15-hexahydropyrazolo[4′,3′:9,10][1,6]oxazacycloundecino[8,7,6-hi]indole-8-carboxylic acid-N-ethylethanamine Salt] | 7.5e-07 | 2.81e-06 | – | – | –
9.86e-06 | – | 1.76e-05 | > 3.3e-05 | 5.85 µM | 1.57 | 0.00149 | > 3.3e-05 | – | 1.54e-06 | – | – | – | – | CCc1nn(C)c2c1-c1cccc3c(CCCOc4cccc5cc(F)ccc45)c(C(=O)O)n(c13)CCCCOC2 (single isomer, unassigned) [Example 288, (+)-3-ethyl-7-{3-[(6-fluoronaphthalen-1-yl)oxy]propyl}-1-methyl-1,10,11,12,13,15-hexahydropyrazolo[4′,3′:9,10][1,6]oxazacycloundecino[8,7,6-hi]indole-8-carboxylic Acid] | – | – | 1.68e-06 | 6.54e-06 | –
– | – | – | – | > 33 µM | > 33 | 0.0228 | – | – | – | > 33 | > 33 | 8.9e-06 | > 3.3e-05 | Cn1nc(CN2CCOCC2)c2c1COCCCCn1c(C(=O)O)c(CCCOc3cccc4ccccc34)c3cccc-2c31 (single isomer, unassigned; enantiomer 1) [Example 136, 1-methyl-3-(morpholin-4-ylmethyl)-7-[3-(naphthalen-1-yloxy)propyl]-1,10,11,12,13,15-hexahydropyrazolo[4′,3′:9,10][1,6]oxazacycloundecino[8,7,6-hi]indole-8-carboxylic Acid (Enantiomer 1)] | – | – | – | – | > 3.3e-05
7.51e-06 | 1.65e-06 | 1.46e-05 | 1.57e-05 | 3.46 µM | 0.899 | 0.00126 | 2.9e-05 | – | – | – | – | 1.13e-06 | – | CCc1nn(CCN2CCOCC2)c2c1-c1cccc3c(CCCOc4cccc5ccccc45)c(C(=O)O)n(c13)CCCCOC2 (single isomer, unassigned; enantiomer 1) [Example 199, 3-ethyl-1-[2-(morpholin-4-yl)ethyl]-7-[3-(naphthalen-1-yloxy)propyl]-1,10,11,12,13,15-hexahydropyrazolo[4′,3:9,10][1,6]oxazacycloundecino[8,76-hi]indole-8-carboxylic Acid (Enantiomer 1)] | 9.25e-07 | 2.92e-06 | – | – | –
